Experimental data as given in US6989375B2, “Enhanced expression of transgenes” (priority 1996, dated 2006).

Experiments:
Assay type in all cases: cell-based, human
H1299 cells [1] = assay: β-gal expression by X-gal staining after Ad/CMV/β-gal infection of agent-treated cells
Experimental: Gene Delivery Protocol: In vitro gene delivery was performed by incubating cells in six-well plates (Falcon Plastics, Lincoln Park, N.J.) for two hours with Adv/CMV/β-gal in appropriate medium supplemented with 2% FCS. The multiplicity of infection (MOI: number of viral particles per target cell) was based on cell counts of untreated wells. Fresh, complete medium with the appropriate concentration of FCS was then added to the wells at the end of the infection period and cells were then incubated for 20 hours at 37° C., 5% CO2. After washing the cells with ice cold PBS, the cells were fixed with ice-cold 1.25% glutaraldehyde and stained with X-gal (5-bromo-4-chloro-3-indolyl-β-d-galactoside; Gibco BRL) as previously described (MacGregor et al., 1987). The transduction efficiency by Adv/CMV/β-gal was determined by the percentage of positive stained cells (blue) for β-galactosidase activity (1000 cells counted per well).
Time Course and Dose Response: To determine the time course of enhancement, H1299 and H460 cells were seeded in 6-well plates (2×10^5 cells/2 mls/well). After an overnight incubation period (37° C., 5% CO2), the initial medium was replaced with freshly prepared media (2 ml) containing 0.062 μg/ml CDDP (Sigma Chemicals, St. Louis, Mo.) (CDDP was prepared fresh by dissolving in distilled water) and the cells were then incubated for 24 hours at 37° C., with 5% CO2. CDDP-treated cells were then washed twice with PBS and subsequently infected with Ad/CMV/β-gal (MOI=1 for H1299 and MOI=5 for H460) on days 0, 1, 2, 3, 4, 5 or 6 following CDDP removal, to determine the time point at which maximal enhancement of expression was occurring. To establish the dose of CDDP needed to produce maximum enhancement, the cells were treated with different concentrations of CDDP (serial, 1:4 dilutions, ranging from 4 μg/ml to 0.0002 μg/ml, 5 ml per 60 mm dish) for 24 hours and subsequently incubated with Ad/CMV/β-gal 48 hours after removal of CDDP. To study if exposure of malignant cells to different classes of antineoplastic agents would lead to a similar elevation of gene expression, H1299 cells were treated with vincristine (Eli Lilly and Co, Indianapolis, Ind.), methotrexate (Lederle Pharmaceuticals, Pearl River, N.Y.), 5-fluorouracil (SoloPak Laboratories, Elk Grove Village, Ill.), epotoside (Bristol Laboratories, Princeton, N.J.) and transplatin (the isomer of CDDP that has no anticancer activity, Sigma Chemical, St. Louis, Mo.) in the similar fashion as CDDP treatment and then infected with Ad/CMV/β-gal 48 hours after removal of drug-containing media. H1299 cells were treated with 2, 4, 8, or 16 Grey (Gy) of ionizing irradiation and then similarly infected 72 hours after irradiation. Untreated cells that were similarly infected, served as controls.

H1299 cells [2] = assay: In situ TUNEL assay for apoptosis; conditions: CDDP = prior CDDP treatment, Ad/CMV/p53 = not exposed to CDDP
Experimental: CDDP-treated or control H1299 cells were fixed in 50% acetone/ethanol for 20 minutes at −20° C. 12 hrs and 24 hrs after transfection with Adv/CMV/p53 (MOI=5). In situ TdT (terminal deoxynucleotidyl transferase)-mediated dUTP-biotin nick end-labeling (TUNEL) assay was performed according to the procedure described elsewhere (Gavrieli et al., 1992). H1299 cells used as positive controls were treated with DNAse I (Gibco BRL, Gaithersburg, Md.), for 1 hr at 37° C. (50 μg/ml in 10 mM Tris-HCI pH=7.5; 140 mM sodium cacodylate, 4 mM MgCl2, 10 mM dithiothreitol).

[3] = system: p53 protein in H1299 cells; assay: p53 immunocytochemical staining; conditions: 24 hrs after p53 gene transfer (MOI=5); prior CDDP exposure
Experimental: The infected cells were fixed 3.8% formalin at 12 and 24 hrs after transfection with Adv/CMV/p53 (MOI=5) with or without prior CDDP exposure and treated with 3% H2O2 in methanol for 5 minutes. The Vectastain kit (Vector Laboratories, Burlingana, Calif.) was used for the immunocytochemical staining. The primary antibody used was the mouse monoclonal anti-p53 antibody Pab 1801 (Oncogene Science, Manhasset, N.Y.). The secondary antibody was the biotinylated anti-mouse IgG antibody (Vector Laboratories). The avidin-biotin-peroxidase complex (ABC) kit was used to detect the antigen-antibody complex. The cells were counterstained with Harris Hematoxylin (Sigma, St. Louis, Mo.) and mounted with cover slips using Cytoseal 60.

N.N.[Cl][Pt][Cl] [CDDP, cis-dichlorodimminocisplatin]
CDDP concentration at which maximal enhancement of β-gal gene expression occurred (H1299 cells [1]; 24 h exposure, infected 48 hours after CDDP removal): 0.062 µg/mL
Time of gene transfer after drug treatment for maximal enhancement (H1299 cells [1]; CDDP 0.062 μg/ml): about 48 hours
Enhancement of β-gal gene expression (H1299 cells [1]; CDDP at 0.0039 and 1 μg/ml, infected 48 hours after CDDP removal): also an enhancement
Enhancement of β-gal expression (FIG. 3) (H1299 cells [1]; drugs at 0.062 μg/ml or irradiated with 8 Greys, stained 24 hrs after infection): Enhancement of β-gal expression was observed
Magnitude of maximal enhancement of transgene expression (FIG. 4B) (H1299 cells [1]; gene transfer 48 hours after exposure to 0.062 μg/ml of CDDP): 2.7 fold
Apoptosis (TUNEL-positive cells) (H1299 cells [2]; 12 hrs after Ad/CMV/p53 transfection (MOI=5)): much higher frequency than in untreated cells
Apoptosis (TUNEL-positive cells) (H1299 cells [2]; 24 hrs after Ad/CMV/p53 transfection (MOI=5)): almost all CDDP-treated cells stained positive for DNA fragmentation
p53 immunocytochemical staining [3]: almost all of the CDDP-treated cells stained positive
